Experimental data as given in patent US20240076293A1, “Compositions and Methods for Inhibiting Fibrosis, Inflammation and Cancer” (Georgia Tech Research Corporation, priority 2020, published 2024).
Like-named read-outs stand apart in the source and are kept apart here.

Assays:
Assay type in all cases: cell-based
[1] = Anti-proliferation IC50, MRC-5; conditions: human, MRC-5 cells; Table 1, compounds of formula I; NI = no inhibition up to 500 μM
Hep-G2 = experiment: Anti-proliferation IC50, Hep-G2; conditions: Homo sapiens, HepG2
MDA-MB-231 = experiment: Anti-proliferation IC50, MDA-MB-231; conditions: Homo sapiens
VERO = experiment: Anti-proliferation IC50, VERO; conditions: Chlorocebus sabaeus
A549 = experiment: Anti-proliferation IC50, A549; conditions: Homo sapiens
MCF-7 = experiment: Anti-proliferation IC50, MCF-7; conditions: Homo sapiens, MCF7
MRC-5 = experiment: Anti-proliferation IC50, MRC-5; conditions: Homo sapiens, MRC5; Table 2, compounds of formula II
[2] = Table 1, compounds of formula I, NI = no inhibition up to 500 μM, read-out: Hep-G2 (IC50)
[3] = Table 1, compounds of formula I, NI = no inhibition up to 500 μM, read-out: MDA-MB-231 (IC50)
[4] = Table 1, compounds of formula I, NI = no inhibition up to 500 μM, read-out: VERO (IC50)
[5] = Table 1, compounds of formula I, NI = no inhibition up to 500 μM, read-out: A549 (IC50)
[6] = Table 1, compounds of formula I, NI = no inhibition up to 500 μM, read-out: MCF-7 (IC50)
[7] = Table 2, compounds of formula II, read-out: Anti-proliferation IC50 Hep-G2
[8] = Table 2, compounds of formula II, read-out: Anti-proliferation IC50 VERO
[9] = Table 2, compounds of formula II, read-out: Anti-proliferation IC50 A549

Row | SMILES | IC50 (MRC-5) [µM] | IC50 (Hep-G2; [7]) [µM] | IC50 (VERO; [8]) [µM] | IC50 (A549; [9]) [µM] | also measured
1 | CC[C@H]1OC(=O)[C@@H](C)[C@@H](O[C@H]2C[C@@](C)(OC)[C@@H](O)[C@H](C)O2)[C@@H](C)[C@@H](O[C@H]2O[C@@H](C)C[C@@H](N(C)Cc3ccc(-c4cn(CCCNC(=O)CCCC[C@H]5CCSS5)nn4)cc3)[C@@H]2O)[C@](C)(OC)C[C@@H](C)C(=O)[C@H](C)[C@H](O)[C@]1(C)O | – | – | – | – | IC50 [1]: 51.6 ± 5 µM; IC50 (Hep-G2; [2]): 49.2 ± 1.8 µM; IC50 (MDA-MB-231; [3]): 58.5 ± 3.2 µM; IC50 (VERO; [4]): 58.1 ± 2.7 µM; IC50 (A549; [5]): 56.9 ± 0.8 µM; IC50 (MCF-7; [6]): 53.6 ± 0.2 µM
2 | O=C(O)CCCCC1CCSS1 (centres unmarked) [Lipoic acid (ALA), Lipoic acid, reference compound] | – | – | – | – | IC50 [1]: > 500 µM; IC50 (Hep-G2; [2]): > 500 µM; IC50 (MDA-MB-231; [3]): > 500 µM; IC50 (VERO; [4]): > 500 µM; IC50 (A549; [5]): > 500 µM; IC50 (MCF-7; [6]): > 500 µM
3 | CC[C@H]1OC(=O)[C@H](C)[C@@H](O[C@H]2C[C@@](C)(OC)[C@@H](O)[C@H](C)O2)[C@H](C)[C@@H](O[C@@H]2O[C@H](C)C[C@H](N(C)CCCCc3ccc(-n4cc(C)ccc4=O)cc3)[C@H]2O)[C@](C)(O)C[C@@H](C)CN(C)[C@H](C)[C@@H](O)[C@]1(C)O [Compound 15a] | 5.9 ± 0.1 | 52.2 ± 1 | 23.9 ± 1.7 | 43.2 ± 5.7 | –
4 | CC[C@H]1OC(=O)[C@H](C)[C@@H](O[C@H]2C[C@@](C)(OC)[C@@H](O)[C@H](C)O2)[C@H](C)[C@@H](O[C@@H]2O[C@H](C)C[C@H](N(C)Cc3cn(CCCCc4ccc(-n5cc(C)ccc5=O)cc4)nn3)[C@H]2O)[C@](C)(O)C[C@@H](C)CN(C)[C@H](C)[C@@H](O)[C@]1(C)O [Compound 15b] | 36.1 ± 6.1 | 27.7 ± 3.3 | 53.2 ± 0.1 | 35.2 ± 5.4 | –
5 | CC[C@H]1OC(=O)[C@H](C)[C@@H](O[C@H]2C[C@@](C)(OC)[C@@H](O)[C@H](C)O2)[C@H](C)[C@@H](O[C@@H]2O[C@H](C)C[C@H](N(C)Cc3cn(CCc4ccc(-n5cc(C)ccc5=O)cc4)nn3)[C@H]2O)[C@](C)(O)C[C@@H](C)CN(C)[C@H](C)[C@@H](O)[C@]1(C)O [Compound 13b] | 172 ± 26.9 | 163.4 ± 1.6 | 151 ± 30.6 | 144 ± 24.5 | –
6 | O=C(O)CCCCC(CCSCc1ccccc1)SCc1ccccc1 (centres unmarked) [CIP-613, reference compound] | – | – | – | – | IC50 (Hep-G2; Anti-proliferation IC50 for the new compounds, read-out: Hep-G2 (IC50 μM)): 232 µM; IC50 (MDA-MB-231; Anti-proliferation IC50 for the new compounds, read-out: MDA-MB-231 (IC50 μM)): 236 µM; IC50 (VERO; Anti-proliferation IC50 for the new compounds, read-out: VERO (IC50 μM)): 224 µM; IC50 (MCF-7; Anti-proliferation IC50 for the new compounds, read-out: MCF-7 (IC50 μM)): 206 µM
7 | CC[C@@H]1OC(=O)[C@@H](C)[C@H](O)[C@@H](C)[C@H](O[C@H]2O[C@@H](C)C[C@@H](N(C)Cc3ccc(-c4cn(CCCNC(=O)CCCC[C@H]5CCSS5)nn4)cc3)[C@@H]2O)C(C)(O)C[C@H](C)CN(C)[C@@H](C)[C@H](O)[C@@]1(C)O (some centres unmarked) | 145 ± 3.5 | 157 ± 11.4 | 168 ± 19.7 | 92.9 ± 13 | –
8 | CC[C@H]1OC(=O)[C@H](C)[C@@H](O[C@H]2C[C@@](C)(OC)[C@@H](O)[C@H](C)O2)[C@H](C)[C@@H](O[C@@H]2O[C@H](C)C[C@H](N(C)Cc3cn(Cc4ccc(-n5cc(C)ccc5=O)cc4)nn3)[C@H]2O)[C@](C)(O)C[C@@H](C)CN(C)[C@H](C)[C@@H](O)[C@]1(C)O [Compound 11b] | 121 ± 14.1 | 234 ± 31.1 | 122 ± 19.4 | 265 ± 4 | –
9 | CC[C@@H]1OC(=O)[C@@H](C)[C@H](O[C@H]2C[C@@](C)(OC)[C@@H](O)[C@H](C)O2)[C@@H](C)[C@H](O[C@H]2O[C@@H](C)C[C@@H](N(C)C)[C@@H]2OC(=O)/C=C/C=C/c2ccc3c(c2)OCO3)C(C)(O)C[C@H](C)CN(C)[C@@H](C)[C@H](O)[C@@]1(C)O (some centres unmarked) | 3.8 ± 0.8 | 5 ± 0.5 | 13.2 ± 1.5 | 15.6 ± 2.6 | –
10 | CC[C@@H]1OC(=O)[C@@H](C)[C@H](O[C@H]2C[C@@](C)(OC)[C@@H](O)[C@H](C)O2)C(C)[C@H](O[C@H]2O[C@@H](C)C[C@@H](N(C)C(=O)/C=C/C=C/c3ccc4c(c3)OCO4)[C@@H]2O)C(C)(O)C[C@H](C)CN(C)[C@@H](C)[C@H](O)[C@@]1(C)O (some centres unmarked) | 11.4 ± 0.4 | 10.2 ± 1.9 | 12.9 | 19.6 ± 1.8 | –
